# Results published in patent US20220281848A1, “PYRAZOLE-SUBSTITUTED PYRROLIDINONES AS HERBICIDES” (FMC Corporation, priority 2019, published 2022).
# How the values were obtained:
# Type in all cases: in vivo
# [1] = system: redroot pigweed (Amaranthus retroflexus, AMARE); experiment: Test A pre-emergence, redroot pigweed; details: after 13 d
# Outline: (§1)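 Pots of soil sown, sprayed at day 1 post-sowing: test compound at 15.625/62.5/250 g/ha in acetone:water 1:1 + 0.5% Tween 20. Glasshouse 24/16° C., 14 h light, 65% RH, watering twice daily. Readout: % damage after 13 d.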
# [2] = system: velvetleaf (Abutilon theophrasti, ABUTH); experiment: Test A pre-emergence, velvetleaf; details: after 13 d
# Outline: as §1
# [3] = system: barnyardgrass (Echinochloa crus-galli, ECHCG); experiment: Test A pre-emergence, barnyardgrass; details: after 13 d
# Outline: as §1
# [4] = system: corn (Zea mays, ZEAMX); experiment: Test A post-emergence, corn; details: after 13 d
# Outline: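 Plants sown in standard soil were grown 8 d in a glasshouse (24/16 °C day/night, 14 h light, 65% humidity), then sprayed with compound in acetone/water (50:50) with 0.5% Tween 20 at 15.625, 62.5 or 250 g/ha. Damage was scored after 13 d (0 = none, 100 = total).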
# [5] = system: plants; experiment: Test D post-emergence, other plants of Tables D2 and D4; details: for ALOMY damage rating (100=total damage to plant; 0=no damage to plant) / AVEFA damage rating (100=total damage to plant; 0=no damage to plant) / BEAVA damage rating (100=total damage to plant; 0=no damage to plant) / BROTE damage rating (100=total damage to plant; 0=no damage to plant) / BRSNN damage rating (100=total damage to plant; 0=no damage to plant) / CHEAL damage rating (100=total damage to plant; 0=no damage to plant) / GALAP damage rating (100=total damage to plant; 0=no damage to plant) / HORVW damage rating (100=total damage to plant; 0=no damage to plant) / KCHSC damage rating (100=total damage to plant; 0=no damage to plant) / LOLPE damage rating (100=total damage to plant; 0=no damage to plant) / POAAN damage rating (100=total damage to plant; 0=no damage to plant) / POLCO damage rating (100=total damage to plant; 0=no damage to plant) / STEME damage rating (100=total damage to plant; 0=no damage to plant) / VERPE damage rating (100=total damage to plant; 0=no damage to plant): "Cereals" Postemergent, evaluated after 15 d
# Outline: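 Damage was rated visually from 0 (none) to 100 (total), at 20 DAA for pre-emergence and 15 d for post-emergence. Plants grew from safener-treated seed in a glasshouse at 24/18° C. or 20/16° C. day/night, 65% humidity, watered twice daily.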
# [6] = post-emergence, rate 130, evaluated after 15 d
# [7] = post-emergence, rate 250, evaluated after 15 d
# [8] = post-emergence, rate 500, evaluated after 15 d
compound,measurement,setting,value
CN1C[C@H](c2nn(C)c3c(F)cccc23)[C@@H](C(=O)Nc2cccc(F)c2F)C1=O [Compound 2],damage to plant (100=total damage; 0=no damage) AMARE,[1]; Pre-Emergence at 15.625 g/ha,10
same,damage to plant (100=total damage; 0=no damage) AMARE,[1]; Pre-Emergence at 62.5 g/ha,0
same,damage to plant (100=total damage; 0=no damage) AMARE,[1]; Pre-Emergence at 250 g/ha,0
same,damage to plant (100=total damage; 0=no damage) ABUTH,[2]; Pre-Emergence at 15.625 g/ha,0
same,damage to plant (100=total damage; 0=no damage) ABUTH,[2]; Pre-Emergence at 62.5 g/ha,0
same,damage to plant (100=total damage; 0=no damage) ABUTH,[2]; Pre-Emergence at 250 g/ha,0
same,damage to plant (100=total damage; 0=no damage) ECHCG,[3]; Pre-Emergence at 15.625 g/ha,90
same,damage to plant (100=total damage; 0=no damage) ECHCG,[3]; Pre-Emergence at 62.5 g/ha,90
same,damage to plant (100=total damage; 0=no damage) ECHCG,[3]; Pre-Emergence at 250 g/ha,90
same,damage to plant (100=total damage; 0=no damage) ZEAMX,[4]; Post-Emergence at 15.625 g/ha,10
same,damage to plant (100=total damage; 0=no damage) ZEAMX,[4]; Post-Emergence at 62.5 g/ha,0
same,damage to plant (100=total damage; 0=no damage) ZEAMX,[4]; Post-Emergence at 250 g/ha,40
same,ALOMY damage rating (100=total damage to plant; 0=no damage to plant),[5]; Rates 130,0
same,ALOMY damage rating (100=total damage to plant; 0=no damage to plant),[5]; Rates 250,10
same,ALOMY damage rating (100=total damage to plant; 0=no damage to plant),[5]; Rates 500,30
same,AVEFA damage rating (100=total damage to plant; 0=no damage to plant),[5]; Rates 130,0
same,AVEFA damage rating (100=total damage to plant; 0=no damage to plant),[5]; Rates 250,10
same,AVEFA damage rating (100=total damage to plant; 0=no damage to plant),[5]; Rates 500,40
same,BEAVA damage rating (100=total damage to plant; 0=no damage to plant),[5]; Rates 130,10
same,BEAVA damage rating (100=total damage to plant; 0=no damage to plant),[5]; Rates 250,20
same,BEAVA damage rating (100=total damage to plant; 0=no damage to plant),[5]; Rates 500,10
same,BROTE damage rating (100=total damage to plant; 0=no damage to plant),[5]; Rates 130,0
same,BROTE damage rating (100=total damage to plant; 0=no damage to plant),[5]; Rates 250,0
same,BROTE damage rating (100=total damage to plant; 0=no damage to plant),[5]; Rates 500,30
same,BRSNN damage rating (100=total damage to plant; 0=no damage to plant),[5]; Rates 130,40
same,BRSNN damage rating (100=total damage to plant; 0=no damage to plant),[5]; Rates 250,50
same,BRSNN damage rating (100=total damage to plant; 0=no damage to plant),[5]; Rates 500,40
same,CHEAL damage rating (100=total damage to plant; 0=no damage to plant),[5]; Rates 250,0
same,CHEAL damage rating (100=total damage to plant; 0=no damage to plant),[5]; Rates 500,20
same,GALAP damage rating (100=total damage to plant; 0=no damage to plant),[5]; Rates 130,0
same,GALAP damage rating (100=total damage to plant; 0=no damage to plant),[5]; Rates 250,10
same,GALAP damage rating (100=total damage to plant; 0=no damage to plant),[5]; Rates 500,0
same,HORVW damage rating (100=total damage to plant; 0=no damage to plant),[5]; Rates 130,0
same,HORVW damage rating (100=total damage to plant; 0=no damage to plant),[5]; Rates 250,20
same,HORVW damage rating (100=total damage to plant; 0=no damage to plant),[5]; Rates 500,30
same,KCHSC damage rating (100=total damage to plant; 0=no damage to plant),[5]; Rates 130,0
same,KCHSC damage rating (100=total damage to plant; 0=no damage to plant),[5]; Rates 250,0
same,KCHSC damage rating (100=total damage to plant; 0=no damage to plant),[5]; Rates 500,0
same,LOLPE damage rating (100=total damage to plant; 0=no damage to plant),[5]; Rates 130,0
same,LOLPE damage rating (100=total damage to plant; 0=no damage to plant),[5]; Rates 250,0
same,LOLPE damage rating (100=total damage to plant; 0=no damage to plant),[5]; Rates 500,0
same,POAAN damage rating (100=total damage to plant; 0=no damage to plant),[5]; Rates 130,20
same,POAAN damage rating (100=total damage to plant; 0=no damage to plant),[5]; Rates 250,70
same,POAAN damage rating (100=total damage to plant; 0=no damage to plant),[5]; Rates 500,80
same,POLCO damage rating (100=total damage to plant; 0=no damage to plant),[5]; Rates 130,0
same,POLCO damage rating (100=total damage to plant; 0=no damage to plant),[5]; Rates 250,20
same,POLCO damage rating (100=total damage to plant; 0=no damage to plant),[5]; Rates 500,40
same,STEME damage rating (100=total damage to plant; 0=no damage to plant),[5]; Rates 130,0
same,STEME damage rating (100=total damage to plant; 0=no damage to plant),[5]; Rates 250,0
same,STEME damage rating (100=total damage to plant; 0=no damage to plant),[5]; Rates 500,0
same,VERPE damage rating (100=total damage to plant; 0=no damage to plant),[5]; Rates 130,0
same,VERPE damage rating (100=total damage to plant; 0=no damage to plant),[5]; Rates 250,10
same,VERPE damage rating (100=total damage to plant; 0=no damage to plant),[5]; Rates 500,0
same,"damage to plant (100=total damage to plant; 0=no damage to plant), ABUTH","[5]; post-emergence, ABUTH, rate 500, evaluated after 15 d",0
same,"damage to plant (100=total damage to plant; 0=no damage to plant), AMARE",[5]; [6],0
same,"damage to plant (100=total damage to plant; 0=no damage to plant), AMARE",[5]; [7],10
same,"damage to plant (100=total damage to plant; 0=no damage to plant), AMARE",[5]; [8],30
same,"damage to plant (100=total damage to plant; 0=no damage to plant), BIDPI",[5]; [6],0
same,"damage to plant (100=total damage to plant; 0=no damage to plant), BIDPI",[5]; [7],0
same,"damage to plant (100=total damage to plant; 0=no damage to plant), BIDPI",[5]; [8],10
same,"damage to plant (100=total damage to plant; 0=no damage to plant), BRAPL",[5]; [6],70
same,"damage to plant (100=total damage to plant; 0=no damage to plant), BRAPL",[5]; [7],80
same,"damage to plant (100=total damage to plant; 0=no damage to plant), BRAPL",[5]; [8],80
same,"damage to plant (100=total damage to plant; 0=no damage to plant), CYPES",[5]; [6],0
same,"damage to plant (100=total damage to plant; 0=no damage to plant), CYPES",[5]; [7],0
same,"damage to plant (100=total damage to plant; 0=no damage to plant), CYPES",[5]; [8],0
same,"damage to plant (100=total damage to plant; 0=no damage to plant), DIGSA",[5]; [6],60
same,"damage to plant (100=total damage to plant; 0=no damage to plant), DIGSA",[5]; [7],70
same,"damage to plant (100=total damage to plant; 0=no damage to plant), DIGSA",[5]; [8],70
same,"damage to plant (100=total damage to plant; 0=no damage to plant), ECHCG",[5]; [7],80
same,"damage to plant (100=total damage to plant; 0=no damage to plant), ECHCG",[5]; [8],80
same,"damage to plant (100=total damage to plant; 0=no damage to plant), ELEIN",[5]; [6],0
same,"damage to plant (100=total damage to plant; 0=no damage to plant), ELEIN",[5]; [7],0
same,"damage to plant (100=total damage to plant; 0=no damage to plant), ELEIN",[5]; [8],0
same,"damage to plant (100=total damage to plant; 0=no damage to plant), EPHHL",[5]; [6],0
same,"damage to plant (100=total damage to plant; 0=no damage to plant), EPHHL",[5]; [7],10
same,"damage to plant (100=total damage to plant; 0=no damage to plant), EPHHL",[5]; [8],40
same,"damage to plant (100=total damage to plant; 0=no damage to plant), GLXMA",[5]; [6],0
same,"damage to plant (100=total damage to plant; 0=no damage to plant), GLXMA",[5]; [7],0
same,"damage to plant (100=total damage to plant; 0=no damage to plant), GLXMA",[5]; [8],10
same,"damage to plant (100=total damage to plant; 0=no damage to plant), IPOHE",[5]; [6],10
same,"damage to plant (100=total damage to plant; 0=no damage to plant), IPOHE",[5]; [7],20
same,"damage to plant (100=total damage to plant; 0=no damage to plant), IPOHE",[5]; [8],30
same,"damage to plant (100=total damage to plant; 0=no damage to plant), ORYSA",[5]; [6],0
same,"damage to plant (100=total damage to plant; 0=no damage to plant), ORYSA",[5]; [7],0
same,"damage to plant (100=total damage to plant; 0=no damage to plant), ORYSA",[5]; [8],10
same,"damage to plant (100=total damage to plant; 0=no damage to plant), PANMI",[5]; [6],0
same,"damage to plant (100=total damage to plant; 0=no damage to plant), PANMI",[5]; [7],0
same,"damage to plant (100=total damage to plant; 0=no damage to plant), PANMI",[5]; [8],0
same,"damage to plant (100=total damage to plant; 0=no damage to plant), SETFA",[5]; [6],70
same,"damage to plant (100=total damage to plant; 0=no damage to plant), SETFA",[5]; [7],70
same,"damage to plant (100=total damage to plant; 0=no damage to plant), SETFA",[5]; [8],80
same,"damage to plant (100=total damage to plant; 0=no damage to plant), SIDSP",[5]; [6],0
same,"damage to plant (100=total damage to plant; 0=no damage to plant), SIDSP",[5]; [7],0
same,"damage to plant (100=total damage to plant; 0=no damage to plant), SIDSP",[5]; [8],0
same,"damage to plant (100=total damage to plant; 0=no damage to plant), SORVU",[5]; [6],0
same,"damage to plant (100=total damage to plant; 0=no damage to plant), SORVU",[5]; [7],0
same,"damage to plant (100=total damage to plant; 0=no damage to plant), SORVU",[5]; [8],0
